This is an account of results in patent publication US20220370465A1, “TREATMENT OF MAST CELL DISEASES AND EOSINOPHILIC DISORDERS” (Blueprint Medicines Corporation, priority 2019, published 2022).

SMILES strings stand for the structures.

The test system of assay [1] is tyrosine kinase inhibitor (TKI)-resistant mastocytoma model. In words: TKI-resistant mastocytoma model in vivo.
The next assay relates to mast cells. Put plainly: Mast cell activation, proliferation and survival. Format: cell-based. An excerpt:
In a specific embodiment, the D816 mutation is D816V. In another specific embodiment, the D816 mutation is D816Y. […] In some embodiments, the inhibition is in a dose-dependent manner. […] Current treatment paradigms for mast cell diseases focus on inhibiting individual mast cell mediators for symptom control (anti-histamines, anti-IgE antibodies, etc.), or on using KIT exon 17 inhibitors in KIT mutant mMCAS.

For `Cn1cc(-c2cc3c(N4CCN(c5ncc([C@@](C)(N)c6ccc(F)cc6)cn5)CC4)ncnn3c2)cn1` [Compound (I), (5)-1-(4-fluorophenyl)-1-(2-(4-(6-(1-methyl-1H-pyrazol-4-yl)pyrrolo[2,1-f][1,2,4]triazin-4-yl)piperazin-yl)pyrimidin-5-yl)ethan-1-amine], the “growth inhibition in mastocytoma model” value in assay [1] is listed as “robust growth inhibition”. Also, in the assay on mast cells, the mast cell activation result is listed as “inhibits mast cell activation”, the mast cell proliferation entry is reported as “inhibits mast cell proliferation” and the “survival of mast cells” value is given as “does not interfere with the survival of mast cells”.
